Measurements taken from patent US6391899B1, “Compounds and compositions for treating tissue ischemia” (North Shore—Long Island Jewish Research Institute, priority 1998, dated 2002).
Read-outs that look alike come from different tables or passages of the source.

Columns and labels:
[1] = test system: rat brain cortex; conditions: for cell necrosis and apoptosis at the injection zone (eosin, TUNEL staining): intracortical microinjection, histology 24 hr; for protection against spermine-mediated intracortical damage, systemic administration: i.p. treatment, intracortical spermine 25 μg, infarct volume 48 hr
[2] = test system: polyamine oxidase; assay: Polyamine oxidase activity in ischemic brain homogenates (conversion of added spermine, HPLC); type: biochemical, rat; conditions: for polyamine oxidase activity in ischemic brain homogenate (FIG. 1): 1 mM added 5 minutes prior to spermine; for IC50: homogenates of ischemic brain, inhibitor added 5 minutes prior to spermine, read-out: I.C.50 for polyamine oxidase activity
Experimental: To measure tissue polyamine oxidase activity, brain homogenates were prepared from the anatomic region perfused by the middle cerebral artery, and total polyamine oxidase activity determined using a method described previously (Seiler and Bolkenius, Neurochem. Res. 10:529-544, 1985; Seiler et al., Med. Biol. 59:334-346, 198 1; and […] et al., J. Neurosci. Res. 28:434-441, 1991), relying on the metabolic conversion of added spermine.

[3] = test system: glial cells (HTB14); assay: Apoptosis detection in glial cells (TUNEL flow cytometry, DNA fragmentation); type: cell-based, human; conditions: for development of TUNEL-positivity in 3-aminopropanal-treated glial cells: iNOS inhibitor added, cytofluorography
Experimental: (§1) Additional evidence of apoptosis by flow cytometric detection of DNA strand breaks was obtained using the terminal deoxynucleotidyl taansferase mediated dUTP nick end labeling TUNEL) method (Gavrieli et al., J. Cell. Biol 119:493-501, 1992). Terminal deoxynucleotidyl transferase mediated dUTP nick end labeling (TUNEL) staining was performed on cell cultures treated with 3-aminopropanal, as indicated. Cells were harvested and collected by centrifugation at 1,500 rpm for 5 min. The pellets were fixed with 1×ORTHO Permeafix (Orthodiagnostics) at room temperature for 40 min. After washing with Dulbecco's phosphate-buffered saline containing 1% bovine serum albumin (PBS-BSA), cells were stained by the TUNEL method using the Oncor Apop Tag Direct Fluorescein kit (Oncor), in accordance with the manufacturer's instructions. A negative control was performed by preparing a reaction solution that was devoid of TdT. A Becton Dickinson flow cytometer was used for all analyses; five to ten thousand events (ungated) were collected according to a single color procedure.
DNA samples from HTB11 or HTB14 cells (20-30×10^6 cells) were assayed for strand breakage by resuspending harvested cells (treated with 3-AP or control) in a reaction buffer containing proteinase K, and incubating overnight at 55° C. RNase was added to a final concentration of […] and the samples were incubated at 37° C. for one hour. DNA was extracted three times with phenol/chloroform and twice with chloroform and precipitated in two volumes of chilled 100% ethanol and 0.3M sodium acetate (pH 5.2). The DNA was resuspended in 50 μl of dH2O, fractionated by 1.5% agarose gel electrophoresis, and stained with SYBR Green I nucleic acid stain (Molecular Probes).
There was also no evidence of apoptosis as measured with Annexin V, a method used to detect loss of cell membrane phospholipid asymmetry that has be associated with apoptosis. Annexin V/propidium iodide (PI) staining was performed using a kit in accordance to the manufacturer's instructions (Me Apoptosis Detection Kit, R&D Systems, Minneapolis). Cells were analyzed by flow cytometry within one hour of completion of staining. The AnnexinV-FITC and PI signals were quantitated independently according to a two-color flow cytometric procedure.

[4] = test system: cultured hippocampal neurons; assay: NMDA neurotoxicity in cultured hippocampal neurons (trypan blue); type: cell-based
Experimental: When aminoguanidine was added to primary neuronal cultures treated with N-methy-D-aspartic acid (NMDA), no attenuation of cytotoxicity was observed (Table III). […] Cultured hippocampal neurons (12-15 days in vitro) were exposed to NMDA (500 μM) for 5 min in MEM (without serum) supplemented with glutamine (100 μM) and glycine (10 μM), rinsed in Earle's Basic Salt Solution, and incubated under standard conditions for 24 hr (37° C.). Neuronal survival was assessed microscopically, by counting a sample of cell somas for uptake vs. exclusion of trypan blue. Aminoguanidine or the non-competitive excitatory amino acid receptor antagonist, MK-801, was added just prior to NMDA and in the final rinse at the concentrations shown. Data are mean±s.e. of nine wells from three replicate experiments.

[5] = test system: neuronal cell cultures (HTB11); conditions: HTB11 cells, overnight incubation
[6] = test system: glial cell cultures (HTB14); conditions: for inhibition of 3-aminopropanal-induced cell death: HTB14, 3 hours pretreatment, then 3-aminopropanal 5 hours, MTT
[7] = test system: glial cell cultures (HTB14); assay: Toxicity of test compounds in parallel glial cultures incubated without 3-AP; type: cell-based, human; conditions: Table V; HTB14, parallel cultures without 3-AP
Experimental: In an alternative embodiment of the screening assay of Example 3, various concentrations of the test compound (e.g. 10-1000 μM) are incubated with the indicator cells in presence of a fixed concentration fo 3-AP (e.g, 200 μM).

[8] = test system: focal cerebral ischemia; conditions: for volume of brain tissue infarcted vs vehicle-treated controls: i.p. beginning 15 minutes after onset of ischemia, total dose PICVA-25 and PICVA-27 200 mg/kg, PICVA-13 400 mg/kg
[9] = test system: glial cell cultures (HTB14); assay: cells; conditions: Homo sapiens, read-out: 50% Effective dose (protection against 3-AP)
[10] = target: T1, iNOS (Mus musculus, UniProt P29477); assay: iNOS activity in RAW 264.7 cell lysates; type: biochemical; conditions: 1 mM
T1 construct: iNOS activity measured in RAW 264.7 cell lysates; endogenous in cells; host or cells: RAW 264.7 cell lysates

[11] = test system: neuronal cell cultures (HTB11); assay: Apoptosis and cell death detection in neuronal cells (TUNEL, Annexin V, DNA electrophoresis, scatter analysis); type: cell-based, human; conditions: for induction of apoptosis in neuronal cells: HTB11, TUNEL, Annexin V, camptothecin 15 μg/ml for 20 hr
Experimental: as §1
DNA samples from HTB11 or HTB14 cells (20-30×10^6 cells) were assayed for strand breakage by resuspending harvested cells (treated with 3-AP or control) in a reaction buffer containing proteinase K, and incubating overnight at 55° C. RNase was added to a final concentration of […] and the samples were incubated at 37° C. for one hour. DNA was extracted three times with phenol/chloroform and twice with chloroform and precipitated in two volumes of chilled 100% ethanol and 0.3M sodium acetate (pH 5.2). […]
There was also no evidence of apoptosis as measured with Annexin V, a method used to detect loss of cell membrane phospholipid asymmetry that has be associated with apoptosis. […] Cells were analyzed by flow cytometry within one hour of completion of staining. The AnnexinV-FITC and PI signals were quantitated independently according to a two-color flow cytometric procedure.

[12] = test system: primary rat astroglial cell cultures; assay: 3-aminopropanal cytotoxicity in primary astroglial cultures; type: cell-based
[13] = test system: intracerebral TNF synthesis; assay: Intracerebral TNF synthesis after central administration; type: in vivo; conditions: centrally administered; data not illustrated
[14] = 25 μg in 2 μl intracortical, assessed 48 hr later
[15] = with NMDA (500 μM) 5 min, MK-801 20 μM or aminoguanidine 1000 μM, 24 hr

T1 sequence (P29477 whole entry): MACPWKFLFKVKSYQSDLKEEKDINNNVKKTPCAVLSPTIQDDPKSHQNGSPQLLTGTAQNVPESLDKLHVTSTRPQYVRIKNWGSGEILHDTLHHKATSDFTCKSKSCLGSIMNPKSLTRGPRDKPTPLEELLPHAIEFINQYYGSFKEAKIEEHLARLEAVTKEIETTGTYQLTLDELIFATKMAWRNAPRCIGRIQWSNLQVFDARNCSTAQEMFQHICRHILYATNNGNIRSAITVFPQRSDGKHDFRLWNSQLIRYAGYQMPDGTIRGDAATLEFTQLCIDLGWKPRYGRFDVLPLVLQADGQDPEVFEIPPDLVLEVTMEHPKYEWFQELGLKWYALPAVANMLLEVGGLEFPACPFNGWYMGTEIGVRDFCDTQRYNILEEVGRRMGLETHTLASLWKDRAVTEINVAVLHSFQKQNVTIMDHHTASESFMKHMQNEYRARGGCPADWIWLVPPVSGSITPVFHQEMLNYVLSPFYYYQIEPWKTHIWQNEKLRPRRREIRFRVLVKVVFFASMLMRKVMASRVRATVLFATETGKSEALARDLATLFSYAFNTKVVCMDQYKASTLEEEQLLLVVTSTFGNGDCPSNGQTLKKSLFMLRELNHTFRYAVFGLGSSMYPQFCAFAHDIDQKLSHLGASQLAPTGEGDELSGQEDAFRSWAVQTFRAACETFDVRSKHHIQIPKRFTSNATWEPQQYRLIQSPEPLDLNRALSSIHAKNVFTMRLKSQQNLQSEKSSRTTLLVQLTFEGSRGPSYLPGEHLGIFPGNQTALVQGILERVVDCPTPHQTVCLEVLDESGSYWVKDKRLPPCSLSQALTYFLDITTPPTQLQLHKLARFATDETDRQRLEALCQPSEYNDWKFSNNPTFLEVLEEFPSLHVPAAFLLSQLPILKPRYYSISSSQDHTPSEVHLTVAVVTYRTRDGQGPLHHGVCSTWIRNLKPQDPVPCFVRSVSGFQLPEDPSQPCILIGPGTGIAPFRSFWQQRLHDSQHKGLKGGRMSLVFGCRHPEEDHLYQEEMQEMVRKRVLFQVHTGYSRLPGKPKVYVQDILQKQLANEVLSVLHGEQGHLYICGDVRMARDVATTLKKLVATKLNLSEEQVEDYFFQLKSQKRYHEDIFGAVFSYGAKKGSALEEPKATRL

NCCCCN [putrescine]
brain damage after intracortical microinjection (TTC staining) [1, 14]: cell death was not observed | cell necrosis and apoptosis at the injection zone (eosin, TUNEL staining) [1]: not observed

N=C(N)NN [aminoguanidine]
polyamine oxidase activity in ischemic brain homogenate (FIG. 1) [2]: inhibited | IC50 [2]: 400 µM | development of TUNEL-positivity in 3-aminopropanal-treated glial cells [3]: failed to attenuate | Neurotoxicity (% dead) [4, 15]: 79 ± 4 % dead | Neurotoxicity (% dead) ([4]; without NMDA, aminoguanidine 1000 μM alone): 7 ± 2 % dead | protection against intracortical spermine-mediated cell death, intracortical administration ([1]; given intracortically simultaneously with spermine): conferred significant protection | protection against spermine-mediated intracortical damage, systemic administration [1]: conferred significant protection | effect on direct cytotoxicity of intracortical 3-aminopropanal ([1]; intracortical 3-aminopropanal): failed to significantly attenuate | effect on spermine-induced cell necrosis and apoptosis (histology) ([1]; intracortical spermine): significantly inhibited | LD50 for 3-aminopropanal in the presence of the PAO inhibitor vs without [5]: similar

NCCCNCCCCNCCCN [spermine]
cell necrosis and apoptosis at the injection zone (eosin, TUNEL staining) [1]: caused cell necrosis and apoptosis | brain damage after intracortical microinjection (TTC staining) ([1]; rat, in vivo): brain tissue damage

C[C@]12N[C@H](Cc3ccccc31)c1ccccc12 [MK-801]
Neurotoxicity (% dead) [4, 15]: 8 ± 3 % dead

NC(=O)c1cc[n+](CC(=O)c2ccccc2)cc1C(N)=O [AP21, N-(2-phenyl-2-oxoethyl)-3,4-dicarboxyamide-pyridinium bromide]
EC50 ([6]; read-out: 50% Effective dose (protection against 3-AP), Table V, HTB14, fixed 3-AP (e.g. 200 μM)): 100 µM

O=C(C[n+]1ccccc1)c1ccccc1.[Br-] [p27a, N-(2-phenyl-2-oxoethyl)-pyridinium bromide]
50% Toxic dose [7]: 5 mM | mortality associated with treatment in the in vivo screening tests ([8]; Lewis, rat, in vivo): 25% | volume of brain tissue infarcted vs vehicle-treated controls [8]: significantly reduced | EC50 [9]: 425 µM

O=C(C[n+]1ccsc1)c1ccccc1.[Br-] [p25, 3-(2-phenyl-2-oxoethyl)-thiazolium bromide]
volume of brain tissue infarcted vs vehicle-treated controls [8]: significantly reduced | mortality associated with treatment in the in vivo screening tests ([8]; rats with focal cerebral ischemia): 38%

Ac-DEVD-CHO
inhibition of 3-aminopropanal-induced cell death [6]: not

Ac-YVAD-CMK
inhibition of 3-aminopropanal-induced cell death [6]: conferred dose-dependent inhibition

NCCCCNCCCN [spermidine]
brain damage after intracortical microinjection (TTC staining) [1, 14]: brain tissue damage

CCN(CC)CCCC(C)Nc1ccnc2cc(Cl)ccc12 (stereo not shown) [chloroquine]
polyamine oxidase activity in ischemic brain homogenate (FIG. 1) [2]: inhibited | IC50 [2]: 40 µM | iNOS activity [10]: 11800±900 DPM/mg protein | protection against spermine-mediated intracortical damage, systemic administration [1]: conferred significant protection | systemic homeostatic responses to cerebral ischemia (blood pressure, heart rate, body temperature, arterial blood gases) ([8]; rat, in vivo): did not significantly alter

CC[C@@]1(O)C(=O)OCc2c1cc1n(c2=O)Cc2cc3ccccc3nc2-1 [camptothecin]
induction of apoptosis in neuronal cells [11]: Apoptosis was induced

CNC(=N)NCCC[C@H](N)C(=O)O [L-NMMA, L-N^G-monomethylarginine]
development of TUNEL-positivity in 3-aminopropanal-treated glial cells [3]: failed to attenuate

CN[C@H](CC(=O)O)C(=O)O [NMDA, N-methy-D-aspartic acid]
Neurotoxicity (% dead) ([4]; NMDA (500 μM) alone, 5 min exposure, 24 hr): 88 ± 4 % dead

NCCC=O [3-aminopropanal]
cytotoxic LD50 [12]: 80 ± 9 µM | glial cells stained TUNEL-positive ([3]; 13 hours of exposure to 275 μM): 76% | apoptosis-specific DNA fragmentation ([3]; HTB-14 glial cells exposed to 3-aminopropanal): apoptosis-specific DNA fragmentation pattern was observed | induction of apoptosis in neuronal cells [11]: did not induce apoptosis | cell death by forward scatter/side scatter analysis ([11]; HTB11 neurons after 3-aminopropanal treatment): 55.7% | intracerebral TNF synthesis [13]: directly stimulated | cell necrosis and apoptosis at the injection zone (eosin, TUNEL staining) [1]: both cellular necrosis and programmed cell death | brain damage after intracortical microinjection (TTC staining) ([1]; rat, in vivo): caused significant cytotoxicity

O=C(O)c1cc(Br)c[n+](CC(=O)c2ccccc2)c1.[Br-] [AP22, N-(2-phenyl-2-oxoethyl)-3-bromo-5-carboxypyridinium bromide]
50% Toxic dose [7]: 1 mM | EC50 [9]: 199 µM
